Data as given in PMC10620091 (Nature, 2023).
Blank lines part the entries; values can stand above or below the molecule they belong to.

Legend:
[1] = target: T1, SpSLC9C1 (Strongylocentrotus purpuratus, UniProt A3RL54); assay: ITC (isolated CTD), nanoDSF ([…] °C shift), cryo-EM structure; type: binding
T1 construct: gene SLC9C1; ITC and nanoDSF: isolated CTD (S946–E1193: helix E', CNBD and β-CTD); cryo-EM: full-length SpSLC9C1 in lipid nanodiscs
T1 sequence (A3RL54 946-1193): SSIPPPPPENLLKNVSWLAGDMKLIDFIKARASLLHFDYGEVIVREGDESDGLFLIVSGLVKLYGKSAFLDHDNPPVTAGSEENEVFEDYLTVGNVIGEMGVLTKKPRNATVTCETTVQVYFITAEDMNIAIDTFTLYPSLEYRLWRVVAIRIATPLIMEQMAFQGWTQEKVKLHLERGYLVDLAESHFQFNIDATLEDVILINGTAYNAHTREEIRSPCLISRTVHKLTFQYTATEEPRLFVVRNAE

[2] = target: the molecule itself; assay: cryo-EM structure; ligand-free SpSLC9C1 in MSP 2N2 / soy polar lipid nanodiscs, pH 7.6, 150 mM Na+ (20 mM HEPES pH 7.6, 150 mM NaCl); C2 symmetry imposed on the final dimer map

Kd [1]: 9.3 µM
Molecule: Nc1nc2c(ncn2[C@@H]2O[C@@H]3COP(=O)(O)O[C@H]3[C@H]2O)c(=O)[nH]1 [cGMP]

B1: SpSLC9C1 (sperm-specific Na+/H+ exchanger SLC9C1 from the sea urchin Strongylocentrotus purpuratus) (natural protein, UniProt A3RL54 30-1325, looked up)
chain: SSGGSGHTPTTQATHADDHDLTTHNGTEEHDDGHDDGHDDLHAHAPKVIVFISGSCLFGAISRSLFKKLPIPYTVVLLILGAILGVVASNVPLVEEHTRDVAHMDPHVLLQIFLPVLIFESAFAMDVHTFMRSFSQVCILALFGLVVASVLTAVLAMNLFNYNWNFSEAMMFGAIMSATDPVAVVALLKDLGASKQLGTIIEGESLLNDGCAIVIFNVFMKMVFFPQLTSTVGQNVLYFLQVAVAGPLWGYAVAKVTVFFLSHIFNDALVEITITLAATYLTYYIGDIWLEVSGVLAVVVLGLIVNAEKTSISPEVEVFLHRFWEMLAYLANTLIFMMVGVVVTQKALVAVDKMDWFYLIILYLAITIIRGMVISLFSPILSRIGYGLTWRNAVIMTWGGLRGAVGLALALVVENLAGNDVIGSKFLFHTAGIVVLTLVINATTIQTLLRILGMSDISIPKRLAMAGAVRRIHEGQNRTLNMLKSDRFLADADWDIATAACEISDPYSALSDDENAPADELTLGERKSVCPGCKAMVPNEPSPREFADMMEEARLRMLKAEKISYWKQFEHGMLAREALRLLVQHAEVAADEKDQFILVDDLKKSWQIKGIYPWLKRKLEDLISEKKIAAIPMPKYKLGKLMYKICHHMAFEVTINIAIVLNIVPIIMEFVVQDKMASVSTMAAPGSTVSSEPSSLQKIEDALRISNYVFFVIYAIEAIVKILGLGRHYIVSHWNKFDAFILVVALVDIIIAETLLKGSITINLSSIKVVKLFRLLRGLRMLRLTKALIPKLILVVNGKINNQLSLGYDVGKGYIIGEEEVGKIIDRMVDNKKILRELKHISETGRLQVVKELGLLQREHPGIAVSVKTRQAIRTILNHSRETIHELQGAGLLDEMEAHKLELTVEIKMKRLMNAPSSIPPPPPENLLKNVSWLAGDMKLIDFIKARASLLHFDYGEVIVREGDESDGLFLIVSGLVKLYGKSAFLDHDNPPVTAGSEENEVFEDYLTVGNVIGEMGVLTKKPRNATVTCETTVQVYFITAEDMNIAIDTFTLYPSLEYRLWRVVAIRIATPLIMEQMAFQGWTQEKVKLHLERGYLVDLAESHFQFNIDATLEDVILINGTAYNAHTREEIRSPCLISRTVHKLTFQYTATEEPRLFVVRNAEYNGPILDGRLDVDSKRSLISITEISSNMCLKHAAELRQKNSKVMLSRKSSGAAAKEEEDCIPNTSDVEQAAGVSPSVPTKTTPKPKSFLPSLGLSMSKERVNGEAVEESPVKTKQGEETPETEEGAAPRVNV
notes: SpSLC9C1, Strongylocentrotus purpuratus, UniProt A3RL54, gene codon-optimized for mammalian cells; full-length protein; the first 70 N-terminal residues are not resolved in the maps; C-terminal HRV-3C cleavage site followed by Venus, myc and SBP tags; the tags were cleaved off with HRV-3C, so residues of the cleavage site may remain at the C-terminus; Homodimer by cryo-EM; also called full-length …
stoichiometry N [2]: 2
